Data as given in paper PMC8346900 (Proceedings of the National Academy of Sciences of the …, 2021).
“Also recorded” adds a separate entry of the source.

Key:
CaMKIIα WT hub = molecular target: T1, CaMKIIα WT hub (Homo sapiens, UniProt Q9UQM7); assay: Thermal shift assay by differential scanning fluorimetry; assay type: binding; details: saturating concentrations, pH 6
T1 sequence (Q9UQM7 345-475): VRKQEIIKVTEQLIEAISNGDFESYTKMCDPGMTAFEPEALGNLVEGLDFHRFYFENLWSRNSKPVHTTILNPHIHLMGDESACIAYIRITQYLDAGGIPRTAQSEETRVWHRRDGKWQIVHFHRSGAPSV

GABAB receptors = details: cited from earlier work
[1] = Body temperature recordings in mice; assay type: in vivo, mouse; details: C57/B6 mice, i.p.; GHB 275 mg/kg, HOCPCA 175 mg/kg
recombinant CaMKIIα = recombinant CaMKIIα (Homo sapiens, UniProt Q9UQM7); assay: ADP-Glo assay, syntide-II phosphorylation; assay type: biochemical; details: fixed concentration of CaM, wide concentration span
[2] = system: CaMKIIα Thr286 autophosphorylation; assay: Thr286 autophosphorylation by Western blot in cultured cortical neurons; assay type: cell-based, mouse; details: 1 h, HOCPCA 3 mM
[3] = system: CaMKIIβ/γ/δ subtypes; CaMKIIα Δhub; assay type: binding, rat; details: heterologously expressed in HEK293T cells
[4] = molecular target: CaMKIIβ/γ/δ subtypes; CaMKIIα Δhub (Rattus norvegicus, UniProt P11275); assay type: binding; details: HEK293T cells transiently expressing Δhub
[5] = system: CaMKIIα (mouse brain slices); assay: In vitro autoradiography on Camk2a and Camk2b +/+ and -/- mouse brain slices; assay type: binding
hippocampal neurons = assay: Glu excitotoxicity in cultured hippocampal neurons, live/dead staining; assay type: cell-based, mouse; details: for Cell survival after Glu: Camk2a-/- neurons
cortical neurons = assay: Glu/Gly excitotoxicity in cultured cortical neurons, LDH release; assay type: cell-based, mouse
[6] = system: mouse hippocampal slices (CA3–CA1); assay: Ex vivo LTP recordings in hippocampal slices; details: bath application, 100 μM, 100 Hz induction
C57/B6 mice = assay: Photothrombotic stroke model of focal ischemia
[7] = molecular target: T2, CaMKIIα wild-type (WT) hub protein (Homo sapiens, UniProt Q9UQM7); assay: Intrinsic tryptophan fluorescence; assay type: binding; details: increasing concentrations
T2 sequence (Q9UQM7 345-475): T1 sequence (Q9UQM7 345-475)

[8] = 175 mg/kg at 3, 6, 12 h poststroke

Sequence of recombinant CaMKIIα (Q9UQM7 whole entry): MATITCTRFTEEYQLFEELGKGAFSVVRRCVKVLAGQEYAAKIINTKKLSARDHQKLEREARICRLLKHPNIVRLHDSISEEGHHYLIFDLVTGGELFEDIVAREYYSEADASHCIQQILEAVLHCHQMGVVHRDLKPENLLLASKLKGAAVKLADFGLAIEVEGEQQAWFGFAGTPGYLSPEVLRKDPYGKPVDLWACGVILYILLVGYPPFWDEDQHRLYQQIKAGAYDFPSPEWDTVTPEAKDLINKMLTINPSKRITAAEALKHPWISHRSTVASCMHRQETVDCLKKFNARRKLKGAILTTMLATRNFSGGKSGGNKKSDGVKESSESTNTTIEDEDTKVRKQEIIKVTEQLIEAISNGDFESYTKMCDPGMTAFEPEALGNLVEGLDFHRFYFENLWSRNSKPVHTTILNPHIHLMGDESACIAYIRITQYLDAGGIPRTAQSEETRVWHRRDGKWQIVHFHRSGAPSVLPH
Sequence of CaMKIIβ/γ/δ subtypes; CaMKIIα Δhub (Rattus norvegicus, UniProt P11275) (P11275 1-337, stated change not applied): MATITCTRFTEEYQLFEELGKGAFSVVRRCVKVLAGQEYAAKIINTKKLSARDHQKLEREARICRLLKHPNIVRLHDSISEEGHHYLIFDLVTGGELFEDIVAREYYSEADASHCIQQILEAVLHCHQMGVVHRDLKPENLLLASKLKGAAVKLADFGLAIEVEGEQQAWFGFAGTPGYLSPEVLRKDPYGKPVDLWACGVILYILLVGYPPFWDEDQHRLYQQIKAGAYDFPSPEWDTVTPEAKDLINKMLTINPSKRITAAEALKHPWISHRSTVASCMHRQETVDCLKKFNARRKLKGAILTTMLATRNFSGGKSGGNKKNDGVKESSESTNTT

For `O=C(O)CCCO` [GHB, γ-hydroxybutyrate, reference compound], the “maximum Tm increase (maximum ∆Tm)” value (CaMKIIα WT hub) is listed as 13 °C, the Ki (GABAB receptors; GABAB receptors) is listed as 230 µM and the “Effect on body temperature” value [1] is listed as “strong hypothermia”. For the same molecule, the “Effect on syntide phosphorylation by CaMKIIα” value (from here on “Effect … by CaMKIIα”) (recombinant CaMKIIα) was “no effect”.
With `COc1ccc(S(=O)(=O)N(CCO)c2ccccc2CN(C)C/C=C/c2ccc(Cl)cc2)cc1` [KN93, reference compound] the Thr286 autophosphorylation ([2]; basal conditions) was “significant inhibition”.
For `[3H]C1(O)C=C(C(=O)O)CC1` (stereo not drawn) [[3H]HOCPCA], the “Binding to CaMKIIβ/γ/δ subtypes” value [3] was “no [^3H]HOCPCA binding was observed”, the “Binding to CaMKIIα hub deletion mutant (Δhub)” value [4] was “complete absence” and the “Binding to brain slices from Camk2a-/- mice” value [5] was “complete lack of binding”. For the same molecule, the “Binding to brain tissue of Camk2a+/+, Camk2b+/+ and Camk2b-/- mice” value [5] was “intact binding”.
In the case of KRPPKLGQIGRSKRVVIEDDR [CN21], the “Effect … by CaMKIIα” value (recombinant CaMKIIα) is reported as “concentration-dependent inhibition”.
With “GRKKRRQRRRKRPPKLGQIGRSKRVVIEDDR [tat-CN21, reference compound]” the “Live/dead ratio after Glu” value (hippocampal neurons; Camk2a+/+ neurons) was “significantly improved”, the “Cell survival after Glu” value (hippocampal neurons) was “neither tat-CN21 nor HOCPCA improved cell survival” and the “Cell death (LDH)” value (cortical neurons; tat-CN21 control (10 μM)) was “significantly reduced cell death”.
With `O=C(O)C1=CC(O)CC1` (stereo not drawn) [HOCPCA, 3-hydroxycyclopent-1-enecarboxylic acid] the “Long-term potentiation (LTP)” value [6] was “did not inhibit”, the “maximum Tm increase (maximum ∆Tm)” value (CaMKIIα WT hub) was 15 °C and the “mean recovery compared with the Glu-only condition (live/dead ratio)” value (hippocampal neurons; Camk2a+/+ neurons, trend, not significant) was 18%. For the same molecule, the “Cell survival after Glu” value (hippocampal neurons) was “neither tat-CN21 nor HOCPCA improved cell survival”, the Cell live/dead ratio (hippocampal neurons; FvB hippocampal cultures, 1 mM, 1 h poststimulation, 400 μM Glu) was “significantly increased” and the Thr286 autophosphorylation ([2]; Ca2+-stimulated conditions) was “did not affect”. For the same molecule, the Thr286 autophosphorylation ([2]; basal conditions) was “did not affect”, the “Forelimb asymmetry in the cylinder test” value (C57/B6 mice; [8]) was “improvements” and the “Motor coordination, paw placement on grid-walking task” value (C57/B6 mice; [8]) was “improvements”. The “reduction in infarct volume” value (C57/B6 mice; 175 mg/kg at 3, 6, and 12 h poststroke, measured 7 d poststroke, young male mice) was 40 to 50%, the “Transport of neuroanatomical tracer biotinylated dextran amine” value (C57/B6 mice; 175 mg/kg i.p., 14 days post-stroke) was “reversal of the stroke-induced decrease” and the “Compound action potentials (CAPs), corpus callosum” value (C57/B6 mice; 175 mg/kg single treatment 3 h poststroke, 14 d poststroke) was 50 to 60 % of control. For the same molecule, the “Treatment effect of single dose” value (C57/B6 mice; aged female mice, 175 mg/kg) was “significant treatment effects”, the “Treatment effect of single dose” value (C57/B6 mice; young males, 90 mg/kg, 3 h poststroke) was “significant treatment effects” and the “Quenching of Trp403 fluorescence” value [7] was “not seen”. The “Affinity to native GABAB receptors” value (GABAB receptors; at 1 mM) was “no affinity; also recorded: lack affinity”, the “Effect on body temperature” value [1] was “no hypothermia” and the “Cell survival (LDH)” value (cortical neurons; 1 mM applied immediately or 30 min after Glu stimulation) was “did not have any effect”. The “Cell death (LDH)” value (cortical neurons; applied 1 h after Glu stimulus, concentration dependent (0.1 to 3 mM)) was “significantly reduced cell death” and the “Effect … by CaMKIIα” value (recombinant CaMKIIα) was “no effect”.
